According to PubChem BioAssay (NCI):
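Where inhibition never reached the appropriate level, the endpoint shown equals the highest concentration tested. Otherwise, values were interpolated linearly from a five-concentration, 48-hour dose response in 96-well plates. GI50 is the concentration that inhibits growth by half. TGI: concentration producing complete growth inhibition.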

Columns and labels:
Assay in all cases: inhibition of tumour cell growth, NCI panel, 48 h
PC-3 prostate = system: PC-3 prostate
NCI-H522 lung = system: NCI-H522 lung
SN12C renal = system: SN12C renal
HOP-62 NSCLC = system: HOP-62 NSCLC
DU-145 prostate = system: DU-145 prostate
SR leukemia = system: SR leukemia
LOX IMVI melanoma = system: LOX IMVI melanoma
BT-549 breast = system: BT-549 breast
COLO 205 colon = system: COLO 205 colon
TK-10 renal = system: TK-10 renal
HCT-116 colon = system: HCT-116 colon
SK-MEL-28 melanoma = system: SK-MEL-28 melanoma
MDA-MB-435 = system: MDA-MB-435
UACC-62 melanoma = system: UACC-62 melanoma
786-0 renal = system: 786-0 renal
M14 melanoma = system: M14 melanoma
OVCAR-3 ovarian = system: OVCAR-3 ovarian
UACC-257 melanoma = system: UACC-257 melanoma
U251 CNS = system: U251 CNS
HOP-92 NSCLC = system: HOP-92 NSCLC
T-47D breast = system: T-47D breast
HCC-2998 colon = system: HCC-2998 colon
HT29 colon = system: HT29 colon
OVCAR-5 ovarian = system: OVCAR-5 ovarian
KM12 colon = system: KM12 colon
HL-60(TB) leukemia = system: HL-60(TB) leukemia
MOLT-4 leukemia = system: MOLT-4 leukemia
CCRF-CEM leukemia = system: CCRF-CEM leukemia
CAKI-1 renal = system: CAKI-1 renal
NCI-H460 lung = system: NCI-H460 lung
ACHN renal = system: ACHN renal
EKVX NSCLC = system: EKVX NSCLC
SF-295 CNS = system: SF-295 CNS
SK-MEL-5 melanoma = system: SK-MEL-5 melanoma
SNB-75 CNS = system: SNB-75 CNS
IGROV1 ovarian = system: IGROV1 ovarian
OVCAR-4 ovarian = system: OVCAR-4 ovarian
MDA-MB-231 breast = system: MDA-MB-231 breast
HCT-15 colon = system: HCT-15 colon
SNB-19 CNS = system: SNB-19 CNS
SK-MEL-2 melanoma = system: SK-MEL-2 melanoma
SK-OV-3 ovarian = system: SK-OV-3 ovarian
OVCAR-8 ovarian = system: OVCAR-8 ovarian
SF-539 CNS = system: SF-539 CNS
NCI-H226 lung = system: NCI-H226 lung
RPMI-8226 leukemia = system: RPMI-8226 leukemia
A498 renal = system: A498 renal
MALME-3M melanoma = system: MALME-3M melanoma
RXF 393 renal = system: RXF 393 renal
MCF7 breast = system: MCF7 breast
SF-268 CNS = system: SF-268 CNS
NCI/ADR-RES ovarian = system: NCI/ADR-RES ovarian
HS 578T breast = system: HS 578T breast
SW-620 colon = system: SW-620 colon
K-562 leukemia = system: K-562 leukemia
NCI-H23 lung = system: NCI-H23 lung
UO-31 renal = system: UO-31 renal
A549 NSCLC = system: A549 NSCLC

For O=C(Nc1ccc(Br)cc1)Nc1nn(C(=O)Nc2ccc(Br)cc2)c2ccccc12, the GI50 (PC-3 prostate) was over 51.6 µM, the TGI (PC-3 prostate) was over 100 µM and the GI50 (NCI-H522 lung) was 31 µM. It also gave a TGI (NCI-H522 lung) of over 100 µM, a GI50 (SN12C renal) of 43.9 µM and a TGI (SN12C renal) of over 100 µM. For the same molecule, the GI50 (HOP-62 NSCLC) was 26.4 µM, the TGI (HOP-62 NSCLC) was over 72.8 µM and the GI50 (DU-145 prostate) was 28.9 µM. It also gave a TGI (DU-145 prostate) of over 100 µM, a GI50 (SR leukemia) of 30.5 µM and a TGI (SR leukemia) of over 100 µM. It also gave a GI50 (LOX IMVI melanoma) of 64.4 µM, a TGI (LOX IMVI melanoma) of over 100 µM and a GI50 (BT-549 breast) of 34.5 µM. The TGI (BT-549 breast) was over 93.7 µM, the GI50 (COLO 205 colon) was over 100 µM and the TGI (COLO 205 colon) was over 100 µM. The GI50 (TK-10 renal) was 39.2 µM, the TGI (TK-10 renal) was over 100 µM and the GI50 (HCT-116 colon) was 16.9 µM. The TGI (HCT-116 colon) was over 100 µM, the GI50 (SK-MEL-28 melanoma) was 96.9 µM and the TGI (SK-MEL-28 melanoma) was over 100 µM. It also gave a GI50 (MDA-MB-435) of over 100 µM, a TGI (MDA-MB-435) of over 100 µM and a GI50 (UACC-62 melanoma) of 36.5 µM. It also gave a TGI (UACC-62 melanoma) of over 100 µM, a GI50 (786-0 renal) of 34.3 µM and a TGI (786-0 renal) of over 100 µM. The GI50 (M14 melanoma) was over 70.8 µM, the TGI (M14 melanoma) was over 100 µM and the GI50 (OVCAR-3 ovarian) was 33.9 µM. It also gave a TGI (OVCAR-3 ovarian) of over 77.6 µM, a GI50 (UACC-257 melanoma) of over 77.6 µM and a TGI (UACC-257 melanoma) of over 100 µM. The GI50 (U251 CNS) was 13.4 µM, the TGI (U251 CNS) was 43.6 µM and the GI50 (HOP-92 NSCLC) was 24.4 µM. The TGI (HOP-92 NSCLC) was over 65.5 µM, the GI50 (T-47D breast) was 28.1 µM and the TGI (T-47D breast) was over 93 µM. The GI50 (HCC-2998 colon) was over 100 µM, the TGI (HCC-2998 colon) was over 100 µM and the GI50 (HT29 colon) was over 100 µM. The TGI (HT29 colon) was over 100 µM, the GI50 (OVCAR-5 ovarian) was over 100 µM and the TGI (OVCAR-5 ovarian) was over 100 µM. For the same molecule, the GI50 (KM12 colon) was over 88.8 µM, the TGI (KM12 colon) was over 100 µM and the GI50 (HL-60(TB) leukemia) was 12 µM. For the same molecule, the TGI (HL-60(TB) leukemia) was over 32.2 µM, the GI50 (MOLT-4 leukemia) was 2.49 µM and the GI50 (CCRF-CEM leukemia) was 7.08 µM. It also gave a TGI (CCRF-CEM leukemia) of over 22.8 µM, a GI50 (CAKI-1 renal) of 44.2 µM and a TGI (CAKI-1 renal) of over 84 µM. It also gave a GI50 (NCI-H460 lung) of 34.1 µM, a TGI (NCI-H460 lung) of over 100 µM and a GI50 (ACHN renal) of 61.9 µM. It also gave a TGI (ACHN renal) of over 100 µM, a GI50 (EKVX NSCLC) of 40.3 µM and a TGI (EKVX NSCLC) of over 100 µM. For the same molecule, the GI50 (SF-295 CNS) was 18 µM, the TGI (SF-295 CNS) was 66.1 µM and the GI50 (SK-MEL-5 melanoma) was over 100 µM. The TGI (SK-MEL-5 melanoma) was over 100 µM, the GI50 (SNB-75 CNS) was 8.26 µM and the TGI (SNB-75 CNS) was 28.7 µM. For the same molecule, the GI50 (IGROV1 ovarian) was 52.6 µM, the TGI (IGROV1 ovarian) was over 100 µM and the GI50 (OVCAR-4 ovarian) was 22.6 µM. It also gave a TGI (OVCAR-4 ovarian) of over 66.8 µM, a GI50 (MDA-MB-231 breast) of 27.2 µM and a TGI (MDA-MB-231 breast) of over 100 µM. For the same molecule, the GI50 (HCT-15 colon) was over 74.2 µM, the TGI (HCT-15 colon) was over 100 µM and the GI50 (SNB-19 CNS) was 23.6 µM. It also gave a TGI (SNB-19 CNS) of 81 µM, a GI50 (SK-MEL-2 melanoma) of 23.7 µM and a TGI (SK-MEL-2 melanoma) of over 100 µM. It also gave a GI50 (SK-OV-3 ovarian) of 16.9 µM, a TGI (SK-OV-3 ovarian) of 54 µM and a GI50 (OVCAR-8 ovarian) of 36.2 µM. It also gave a TGI (OVCAR-8 ovarian) of over 100 µM, a GI50 (SF-539 CNS) of 29.3 µM and a TGI (SF-539 CNS) of over 100 µM. It also gave a GI50 (NCI-H226 lung) of 27.7 µM, a TGI (NCI-H226 lung) of over 100 µM and a GI50 (RPMI-8226 leukemia) of over 51.7 µM. It also gave a TGI (RPMI-8226 leukemia) of over 100 µM, a GI50 (A498 renal) of 31.4 µM and a TGI (A498 renal) of over 81 µM. It also gave a GI50 (MALME-3M melanoma) of over 44.3 µM, a TGI (MALME-3M melanoma) of over 85.3 µM and a TGI (RXF 393 renal) of over 45.9 µM. The GI50 (MCF7 breast) was 29.1 µM, the TGI (MCF7 breast) was over 100 µM and the GI50 (SF-268 CNS) was 17.6 µM. The TGI (SF-268 CNS) was over 63.9 µM, the GI50 (NCI/ADR-RES ovarian) was 55.6 µM and the TGI (NCI/ADR-RES ovarian) was over 100 µM. For the same molecule, the GI50 (HS 578T breast) was 13.7 µM, the TGI (HS 578T breast) was 55.8 µM and the GI50 (SW-620 colon) was over 38.6 µM. For the same molecule, the TGI (SW-620 colon) was over 100 µM, the GI50 (K-562 leukemia) was 7.64 µM and the TGI (K-562 leukemia) was over 35.6 µM. It also gave a GI50 (NCI-H23 lung) of 29.1 µM, a TGI (NCI-H23 lung) of over 100 µM and a GI50 (UO-31 renal) of over 100 µM. For the same molecule, the TGI (UO-31 renal) was over 100 µM, the GI50 (A549 NSCLC) was 51.5 µM and the TGI (A549 NSCLC) was over 100 µM.
